Some results are limits rather than exact numbers.

Series [1] relates to cerebrospinal fluid β-amyloid (aβ). The following applies: at 1 h after administration; cited from earlier work.
For series [2], the target named is T1, sigma-2 receptor (Homo sapiens, UniProt Q5BJF2). The following applies: cited from earlier work.
The conditions of series [3]: cited from earlier work.
Series [4] deals with T1, sigma-2 receptor. Briefly: Sigma 2 binding assay (3H-DTG radioligand, cell membrane). Conditions: sigma-2R cell membrane, 2 hours at room temperature; for IC50: read-out: Sigma 2 Binding Assay Summary IC50; for Ki: read-out: Sigma 2 Binding Assay Summary Ki. The method, then:
(§1) The pharmacodynamic test methods employed in this embodiment are those known to those skilled in the art; the sigma-2 receptor inhibitory activity assay kit employed in this embodiment is commercially available to those skilled in the art. sigmal/sigma-2 receptor affinity activity test:
(§2) In a 96-well plate, eight 4-fold dilutions of the test and reference compounds were made, and 1 μL of each compound was added to each well, and the wells were rearranged. The reference compound Haloperidol was added at a starting concentration of 1 μM, 1 μL of DMSO was added to the high signal control wells (High control), and 1 μL of Haloperidol was added to the low signal control wells (Low control) at a concentration of 200 μM (final concentration of 1 μM), and 100 μL of desired concentration of sigma-1R or sigma-2R cell membrane, diluted in 50 mM Tris-HCl (pH 7.4, Sigma, Cat: T1503-1 KG) was added to each well and 100 μL of desired concentration of 3H-DTG diluted in 50 mM Tris-HCl (pH 7.4) was added to each well, the 96-well plate was sealed, and incubated for 2 hours at room temperature on a shaker at 300 rpm. Simultaneously, GF/C filter plates (PerkinElmer, Cat: NET986250UC) were soaked with 0.3% PEI (Poly ethyleneimine, Sigma, Cat: P3143). After incubation, the cells were collected onto GF/C filter plates with a cell collector (PerkinElmer, model: C961961), washed 4 times with 50 mM Tris-HCl (pH 7.4) wash buffer, and then dried in an oven at 50° C. for 1 h. The bottom of the dried GF/C filter plates were sealed with a membrane, and 50 μL of scintillation solution was added into each well and sealed, and the cells were read by using a Microbeta (PerkinElmer, model: 2450 Microplate Counter). The percentage of activity was calculated using Microsoft Excel software with the formula: % Activity=100×(Sample RawValue−High Control Average)/(Low Control Average-High Control Average), using GraphPad Prism 5 data analysis software. The Dose-response-Stimulation-log [antagonist] vs. response-Variable slope model was selected for fitting analysis to obtain the IC50 value of each tested sample, and the results are shown in Table 1.

The target in a further series is sigma-1 receptor (Homo sapiens, UniProt Q99720). Description: Sigma1 binding assay (3H-DTG radioligand, cell membrane). The following applies: sigma-1R cell membrane, 2 hours at room temperature; for IC50: read-out: Sigma1 Binding Assay Summary IC50; for Ki: read-out: Sigma1 Binding Assay Summary Ki. The method, then: as §1, §2
Sequence of sigma-1 receptor (Q99720 whole entry): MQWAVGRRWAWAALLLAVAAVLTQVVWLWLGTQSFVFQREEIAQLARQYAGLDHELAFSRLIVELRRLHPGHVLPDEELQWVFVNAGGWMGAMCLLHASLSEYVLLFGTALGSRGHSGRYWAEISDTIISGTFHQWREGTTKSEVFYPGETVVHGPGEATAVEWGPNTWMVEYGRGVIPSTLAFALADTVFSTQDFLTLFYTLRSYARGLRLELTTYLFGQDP

T1 sequence (Q5BJF2 whole entry, species assumed): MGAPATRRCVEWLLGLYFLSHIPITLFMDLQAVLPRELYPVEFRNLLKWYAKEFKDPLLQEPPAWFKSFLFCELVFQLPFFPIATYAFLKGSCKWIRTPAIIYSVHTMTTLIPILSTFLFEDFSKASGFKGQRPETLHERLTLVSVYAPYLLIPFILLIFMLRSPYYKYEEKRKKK

`CC(C)(C)Oc1cc(CCC(C)(C)N2Cc3ccc(S(C)(=O)=O)cc3C2)ccc1O` [CT1812]: the “concentration of cerebrospinal fluid β-amyloid (aβ)” value in series [1] is “increase”. In addition, the “sigma-1 and sigma-2 receptor selectivity” value at sigma-2 receptor [2] is “poor”. Further, the oral bioavailability entry in series [3] was “poor”.

Take `CC(C)(C)Oc1cc(CCC(C)(C)N2Cc3ccc(S(=N)(=O)CF)cc3C2)ccc1O` (stereo not drawn) [Compound 20]: at sigma-2 receptor [4], the IC50 is under 0.1 µM and the Ki is under 0.1 µM. Moreover, on sigma-1 receptor, the concentration for half-maximal inhibition (IC50) is over 0.1 µM and the Ki is over 0.1 µM.

Turning to `CC(C)(C)Oc1cc(CCC(C)(C)N2Cc3ccc(S(=N)(=O)CCCF)cc3C2)ccc1O` (stereo not drawn) [Compound 21], on sigma-2 receptor [4], the IC50 is over 0.5 µM and the Ki is over 0.5 µM. At sigma-1 receptor, the IC50 was over 5 µM and the Ki is over 5 µM.

`CC(C)(C)Oc1cc(CCC(C)(C)N2Cc3ccc(S(=N)(=O)CCCCF)cc3C2)ccc1O` (stereo not drawn) [Compound 22]: on sigma-2 receptor [4], the IC50 was over 0.5 µM and the Ki is over 0.5 µM. In addition, at sigma-1 receptor, the IC50 was over 5 µM and the Ki is over 5 µM.

The values are drawn from patent publication US12371405B1, “Isoindol-sulfilimine compound and use as a sigma-2 receptor inhibitor thereof” (SHANGHAI UNIVERSITY OF MEDICINE AND HEALTH SCIENCES, priority 2024, dated 2025).
